Columns and labels:
[1] = cited from earlier work
[2] = test system: cardiomyocytes derived from stem cells (differentiated induced pluripotent stem cells); assay: In vitro assay with Endpoint A (causally associated with cardiomyopathy) on stem-cell-derived cardiomyocytes from 100 donors; assay type: cell-based, human
Procedure: An in vitro assay is then identified whose endpoint—referred to herein as Endpoint A—includes one that is causally associated with one of the cardiotoxic effects of doxorubicin: cardiomyopathy. Concentrations of doxorubicin as prescribed by the in vitro assay's protocol are prepared in a concentration that corresponds to doses of 500 mg and 600 mg administered in vivo.
In vitro tests are conducted at these concentrations on a representative sample of cardiomyocytes derived from stem cells (the cardiomyocytes are differentiated induced pluripotent stem cells) originating from a sample of 100 donors, and then the donors are arrayed in order of ascending scores on Endpoint A.
The “Reaction Threshold Prediction Model” is selected as the mathematical transform in their procedure. It is noted from the doxorubicin clinical cardiotoxicity data mentioned above that 12% of the clinical trial participants experienced cardiomyopathy when treated at the 500 mg dose level. Using the in vitro test results above, the Endpoint A score is determined that is associated with the 88th Percentile member of the in vitro cohort of 100 donors (88 representing 100% minus the 12% of the sample in vivo who experienced cardiomyopathy following treatment with a 500 mg dose). The Endpoint A score reads 70 units.
Next, the in vitro assay of doxorubicin is repeated, with a concentration corresponding to a 600 mg dose administered in vivo, on a representative sample of cardiomyocytes derived from stem cells originating from a sample of 100 donors, and then the donors are arrayed in order of ascending scores on Endpoint A. This time, the Endpoint A score is detected for the donor at the 76th Percentile (76 representing 100% minus the […] of the sample in vivo who experienced cardiomyopathy following treatment with a 600 mg dose). This time, the Endpoint A score reads 65 units. […]

## COc1cccc2c1C(=O)c1c(O)c3c(c(O)c1C2=O)C[C@@](O)(C(=O)CO)C[C@@H]3O[C@H]1C[C@H](N)[C@H](O)[C@H](C)O1 [doxorubicin]
[1]; 500 mg dose level
  clinical trial participants who experienced cardiomyopathy: 12%
[1]; 600 mg dose
  sample in vivo who experienced cardiomyopathy: 23%
[2]; concentration corresponding to 500 mg dose, 88th percentile member of 100 donors
  Endpoint A score: 70 units
[2]; concentration corresponding to 600 mg dose, donor at 76th percentile of 100 donors
  Endpoint A score: 65 units
[2]; leads to incidences of cardiomyopathy in the range of 10 to 25 percent
  Endpoint A score approximating threshold of impact (presumed toxicity threshold): 65-70

— patent US20180224430A1, “Method of Estimating the Incidence of In Vivo Reactions to Chemical or Biological Agents Using In Vitro Experiments” (Coyne Scientific, LLC, priority 2015, published 2018)
